From publication PMC8116058, “De novo macrocyclic peptides dissect energy coupling of a heterodimeric ABC transporter by multimode allosteric inhibition” (eLife, 2021)
Positions of bridges follow the written chain, without caps; N, C: chain ends. Non-standard residues stand in square brackets, D forms with d. Residues, ends and D or L forms follow the SMILES beside them. *: point of attachment. 5FAM = O=C1OC2(c3ccc(O)cc3Oc3cc(O)ccc32)c2ccc(C(=O)*)cc21; βAla = NCCC(=O)O

Target: T1, TmrAB reconstituted in liposomes (Thermus thermophilus, UniProt Q72J04+Q72J05)
T1 sequence (Q72J05 1-600): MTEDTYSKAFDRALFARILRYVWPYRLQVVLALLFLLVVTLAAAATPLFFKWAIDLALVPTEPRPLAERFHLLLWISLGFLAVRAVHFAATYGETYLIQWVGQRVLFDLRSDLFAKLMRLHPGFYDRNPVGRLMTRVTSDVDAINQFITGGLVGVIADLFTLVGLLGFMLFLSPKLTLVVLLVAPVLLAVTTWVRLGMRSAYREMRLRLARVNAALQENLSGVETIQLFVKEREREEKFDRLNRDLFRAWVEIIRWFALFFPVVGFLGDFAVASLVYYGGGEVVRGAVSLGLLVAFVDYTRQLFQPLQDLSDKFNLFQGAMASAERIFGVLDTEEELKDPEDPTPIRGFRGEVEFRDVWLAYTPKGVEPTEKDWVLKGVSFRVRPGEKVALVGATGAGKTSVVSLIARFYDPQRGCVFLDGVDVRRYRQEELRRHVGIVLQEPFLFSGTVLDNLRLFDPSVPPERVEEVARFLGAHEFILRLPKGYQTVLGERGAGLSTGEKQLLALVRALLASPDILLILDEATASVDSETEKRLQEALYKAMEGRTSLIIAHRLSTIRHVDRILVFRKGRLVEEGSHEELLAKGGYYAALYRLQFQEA
T1 sequence (Q72J04 1-578): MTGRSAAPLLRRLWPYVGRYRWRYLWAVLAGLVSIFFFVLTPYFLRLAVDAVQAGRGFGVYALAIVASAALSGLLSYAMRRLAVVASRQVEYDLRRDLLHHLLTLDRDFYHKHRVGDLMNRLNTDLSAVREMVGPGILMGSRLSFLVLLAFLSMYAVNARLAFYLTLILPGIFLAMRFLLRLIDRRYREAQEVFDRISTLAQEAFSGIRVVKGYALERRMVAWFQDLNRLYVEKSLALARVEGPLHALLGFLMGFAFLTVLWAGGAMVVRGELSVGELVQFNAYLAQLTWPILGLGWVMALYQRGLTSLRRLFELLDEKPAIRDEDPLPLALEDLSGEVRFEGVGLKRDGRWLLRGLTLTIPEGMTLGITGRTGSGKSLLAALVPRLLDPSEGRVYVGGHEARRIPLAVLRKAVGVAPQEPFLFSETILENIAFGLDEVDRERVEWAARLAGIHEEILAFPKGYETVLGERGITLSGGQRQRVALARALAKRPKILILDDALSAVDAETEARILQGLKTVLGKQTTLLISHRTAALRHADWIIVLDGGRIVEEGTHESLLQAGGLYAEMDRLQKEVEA
Experiment: Filter-based transport assay, CP^Fs tested as substrates
Assay type: biochemical
Conditions: TmrAB 0.4 µM in liposomes, C4F 3 µM or CP^F 1 µM, 5 min 45°C
Text: In order to investigate the functional impact of CPs, we examined the effect of the CPs on ATP hydrolysis and substrate transport of TmrAB (Figure 3A). We reconstituted TmrAB in liposomes and first assayed the ATPase activity. […] We next set out to investigate peptide transport by TmrAB using a filter-based transport assay. To investigate whether CPs are recognized as substrates by TmrAB, we added fluorescein-labeled CP^Fs and examined ATP-dependent translocation. In contrast to the linear substrate peptide C4F, none of the CP^Fs were transported by TmrAB (Figure 3C). Next, we examined ATP-dependent transport of C4F peptides in the presence and absence of the different CPs.
Figure 3. CP^Fs are potent inhibitors of ATP turnover and substrate transport. (A) Experimental scheme of ATP hydrolysis and peptide transport by TmrAB. (B) CP^Fs inhibit ATP hydrolysis. TmrAB in liposomes (100 nM) was incubated with ATP (2 mM, traced with [γ^32P]-ATP), and MgCl2 (5 mM) in the presence and absence of CP^Fs (1 µM) for 10 min at 45°C. Autohydrolysis was determined in the absence of TmrAB, and background turnover was conducted in the presence of EDTA (10 mM). Release of [γ^32P] was quantified by thin layer chromatography. (C) CP^Fs are not transported by TmrAB. TmrAB (0.4 µM) reconstituted in liposomes was incubated with C4F peptide (3 µM) or CP^Fs (1 µM) in the presence of ATP/ADP (3 mM) and MgCl2 (5 mM) for 5 min at 45°C. Since CP^Fs were dissolved in maximal 0.5% (v/v) of DMSO, C4F plus 0.5% DMSO served as control. Proteoliposomes were washed on filter plates, and transported peptides were quantified at λex/em = 485/520 nm. (D) Inhibition of substrate translocation. TmrAB in liposomes (0.4 µM) were incubated with C4F peptide (3 µM), ATP/ADP (3 mM), and MgCl2 (5 mM) in the presence and absence of CP^Fs (1 µM) for 15 min at 45°C. Transported peptides were quantified as described in (C). In (B–C), mean values ± SD (n = 3) are shown. Figure 3—source data 1. Source data for Figure 3.
TmrAB in liposomes (0.4 µM) were incubated with ATP/ADP (3 mM), MgCl2 (5 mM), C4F peptide (3 µM), and CP^Fs (1 µM) for 15 min at 45°C. […] Proteoliposomes were solubilized by adding SDS (1% [v/v]) in transport buffer for 10 min at 20°C. Transported peptides were quantified at λex/em = 485/520 nm using a microplate reader (CLARIOstar, BMG LABTECH).

SMILES	Transported peptide (ADP 3 mM (background))	Transported peptide (ATP 3 mM)
CC(C)C[C@@H]1NC(=O)[C@H](Cc2ccccc2)NC(=O)CNC(=O)[C@H](CO)NC(=O)[C@H](Cc2ccccc2)NC(=O)[C@H](CC(=O)O)NC(=O)[C@@H]2CCCN2C(=O)[C@H]([C@@H](C)O)NC(=O)[C@@H](Cc2ccc(O)cc2)NC(=O)CSC[C@@H](C(=O)NCC(=O)N[C@@H](CO)C(=O)NCCC(=O)NCCC(=O)N[C@@H](CCCNC(=N)N)C(=O)N[C@@H](CCCCNC(=O)c2ccc3c(c2)C(=O)OC32c3ccc(O)cc3Oc3cc(O)ccc32)C(N)=O)NC(=O)[C@H](C)NC(=O)[C@H](CC(N)=O)NC(=O)[C@H](CCCNC(=N)N)NC(=O)[C@H](CC(C)C)NC(=O)[C@H](Cc2ccccc2)NC(=O)[C@H](C)NC1=O [CP12] ({CH2CO}-[dY]TPDFSGFLAFLRNACGS[βAla][βAla]RK(5FAM)-NH2; thioether N-16)	0.55 µmol·g/min	0.44 µmol·g/min
CC[C@H](C)[C@@H]1NC(=O)[C@H]([C@@H](C)O)NC(=O)[C@H](CC(C)C)NC(=O)[C@H](Cc2c[nH]c3ccccc23)NC(=O)[C@H](Cc2ccccc2)NC(=O)[C@H](CC(N)=O)NC(=O)[C@H](CCC(=O)O)NC(=O)[C@H](CC(C)C)NC(=O)[C@H](CS)NC(=O)[C@H](Cc2c[nH]cn2)NC(=O)[C@H](CO)NC(=O)[C@@H](Cc2ccc(O)cc2)NC(=O)CSC[C@@H](C(=O)NCC(=O)N[C@@H](CO)C(=O)NCCC(=O)NCCC(=O)N[C@@H](CCCNC(=N)N)C(=O)N[C@@H](CCCCNC(=O)c2ccc3c(c2)C(=O)OC32c3ccc(O)cc3Oc3cc(O)ccc32)C(N)=O)NC(=O)[C@H](CC(C)C)NC1=O [CP6] ({CH2CO}-[dY]SHCLENFWLTILCGS[βAla][βAla]RK(5FAM)-NH2; thioether N-14)	0.38 µmol·g/min	0.33 µmol·g/min
CC[C@H](C)[C@@H]1NC(=O)[C@H](Cc2c[nH]c3ccccc23)NC(=O)[C@H](CC(N)=O)NC(=O)[C@H](C)NC(=O)[C@H](CO)NC(=O)[C@@H]2CCCN2C(=O)[C@H](CC(=O)O)NC(=O)[C@@H](Cc2ccc(O)cc2)NC(=O)CSC[C@@H](C(=O)NCC(=O)N[C@@H](CO)C(=O)NCCC(=O)NCCC(=O)N[C@@H](CCCNC(=N)N)C(=O)N[C@@H](CCCCNC(=O)c2ccc3c(c2)C(=O)OC32c3ccc(O)cc3Oc3cc(O)ccc32)C(N)=O)NC(=O)[C@H]([C@@H](C)O)NC(=O)[C@H](CC(C)C)NC(=O)[C@H](CC(C)C)NC(=O)[C@H](C(C)C)NC(=O)[C@H](CC(C)C)NC1=O [CP13] ({CH2CO}-[dY]DPSANWILVLLTCGS[βAla][βAla]RK(5FAM)-NH2; thioether N-14; C-terminus assumed)	0.28 µmol·g/min	0.33 µmol·g/min
CC(C)[C@@H]1NC(=O)[C@H](Cc2ccccc2)NC(=O)[C@@H]2CCCN2C(=O)[C@H](CC(N)=O)NC(=O)[C@H](Cc2c[nH]c3ccccc23)NC(=O)[C@H](C(C)C)NC(=O)[C@H](Cc2ccc(O)cc2)NC(=O)[C@H](Cc2ccccc2)NC(=O)[C@@H](Cc2ccc(O)cc2)NC(=O)CSC[C@@H](C(=O)NCC(=O)N[C@@H](CO)C(=O)NCCC(=O)NCCC(=O)N[C@@H](CCCNC(=N)N)C(=O)N[C@@H](CCCCNC(=O)c2ccc3c(c2)C(=O)OC32c3ccc(O)cc3Oc3cc(O)ccc32)C(N)=O)NC(=O)[C@H](CCCCN)NC(=O)[C@H](Cc2ccccc2)NC1=O [CP14] ({CH2CO}-[dY]FYVWNPFVFKCGS[βAla][βAla]RK(5FAM)-NH2; thioether N-12; C-terminus assumed)	0.25 µmol·g/min	0.26 µmol·g/min
